Active and inactive are the calls of the source. The rule behind the calls is not given here.
Tests used:
fMet-Leu-Phe receptor [1] = molecular target: T1, fMet-Leu-Phe receptor (Homo sapiens, UniProt P21462); assay: Antagonist activity at human FPR1 in human neutrophils assessed as inhibition of fMLF-stimulated intracellular calcium mobilisation by FLIPR assay; type: functional, cell-based
T1 sequence (P21462 whole entry): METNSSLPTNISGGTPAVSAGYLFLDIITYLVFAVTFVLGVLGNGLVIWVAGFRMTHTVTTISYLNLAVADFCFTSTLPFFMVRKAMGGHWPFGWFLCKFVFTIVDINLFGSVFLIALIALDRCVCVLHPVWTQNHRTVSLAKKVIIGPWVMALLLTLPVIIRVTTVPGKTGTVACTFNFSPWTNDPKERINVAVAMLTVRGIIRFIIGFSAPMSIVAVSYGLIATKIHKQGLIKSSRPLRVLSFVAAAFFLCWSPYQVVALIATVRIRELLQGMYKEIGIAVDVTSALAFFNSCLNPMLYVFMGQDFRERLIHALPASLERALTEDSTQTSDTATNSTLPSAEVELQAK

[2] = molecular target: T2, fMet-Leu-Phe receptor (Homo sapiens) (UniProt P21462); assay: Antagonist activity at human FPR1 in human neutrophils assessed as inhibition of fMLF-stimulated intracellular calcium mobilisation at 50 uM by FLIPR assay; type: functional, cell-based
T2 sequence (whole entry): T1 sequence (P21462 whole entry)

Cytochrome P450 1A2 = molecular target: T3, Cytochrome P450 1A2 (Homo sapiens, UniProt P05177); assay: Inhibition of CYP1A2; type: ADME
T3 sequence (P05177 whole entry): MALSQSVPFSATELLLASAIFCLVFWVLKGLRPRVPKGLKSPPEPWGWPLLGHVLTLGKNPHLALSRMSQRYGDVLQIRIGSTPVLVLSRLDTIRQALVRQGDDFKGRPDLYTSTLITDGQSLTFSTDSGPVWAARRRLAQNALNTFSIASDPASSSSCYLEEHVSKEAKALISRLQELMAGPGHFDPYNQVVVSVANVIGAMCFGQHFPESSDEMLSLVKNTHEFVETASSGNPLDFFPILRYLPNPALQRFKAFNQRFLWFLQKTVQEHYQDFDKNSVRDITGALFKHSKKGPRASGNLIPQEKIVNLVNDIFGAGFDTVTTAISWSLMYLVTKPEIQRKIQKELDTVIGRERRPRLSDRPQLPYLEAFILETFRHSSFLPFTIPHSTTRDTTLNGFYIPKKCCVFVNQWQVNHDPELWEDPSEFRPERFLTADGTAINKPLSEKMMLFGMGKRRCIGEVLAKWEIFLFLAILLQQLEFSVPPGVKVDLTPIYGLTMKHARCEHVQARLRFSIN

fMet-Leu-Phe receptor [3] = molecular target: T1, fMet-Leu-Phe receptor; assay: Antagonist activity at FPR1 in whole blood assessed as CD11 level; type: functional, tissue-based; settings: read-out: pA2 (converted)
Cavia porcellus = organism: Cavia porcellus; assay: Inhibition of guinea pig FPR1
[4] = Chemical stability of the compound assessed as half life; type: physicochemical
[5] = Fraction unbound in rat; type: ADME, organism-based; settings: in vivo
Cytochrome P450 3A4 = Cytochrome P450 3A4 (Homo sapiens, UniProt P08684); assay: Inhibition of CYP3A4; type: ADME
[6] = molecular target: T4, fMet-Leu-Phe receptor (Mus musculus) (UniProt P33766); assay: Inhibition of mouse FPR1
T4 sequence (whole entry): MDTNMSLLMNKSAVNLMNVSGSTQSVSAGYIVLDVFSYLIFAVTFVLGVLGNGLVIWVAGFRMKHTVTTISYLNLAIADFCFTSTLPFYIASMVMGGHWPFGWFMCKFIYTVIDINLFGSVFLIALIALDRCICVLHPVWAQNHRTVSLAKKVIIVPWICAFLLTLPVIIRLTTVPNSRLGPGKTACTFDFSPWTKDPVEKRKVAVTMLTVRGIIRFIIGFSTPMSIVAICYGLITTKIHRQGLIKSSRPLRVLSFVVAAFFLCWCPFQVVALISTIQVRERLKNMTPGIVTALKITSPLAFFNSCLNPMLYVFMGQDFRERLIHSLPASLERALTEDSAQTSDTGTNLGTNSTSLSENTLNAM

[7] = Intrinsic clearance in Sprague-Dawley rat hepatocytes assessed per 10 '6 cells; type: ADME, cell-based, Liver, Hepatocyte
[8] = Intrinsic clearance in human hepatocytes assessed per 10 '6 cells; type: ADME, cell-based, Liver, Hepatocyte
[9] = Lipophilicity, log D of the compound; type: physicochemical; settings: octanol/water
Cytochrome P450 2D6 = Cytochrome P450 2D6 (Homo sapiens, UniProt P10635); assay: Inhibition of CYP2D6; type: ADME
Cytochrome P450 2C19 = Cytochrome P450 2C19 (Homo sapiens, UniProt P33261); assay: Inhibition of CYP2C19; type: ADME
[10] = Solubility of the compound; type: physicochemical
Rattus norvegicus = organism: Rattus norvegicus; assay: Inhibition of rat FPR1
Cytochrome P450 2C9 = Cytochrome P450 2C9 (Homo sapiens, UniProt P11712); assay: Inhibition of CYP2C9; type: ADME
[11] = Intrinsic clearance in Sprague-Dawley rat microsomes; type: ADME, Microsome
[12] = Intrinsic clearance in human microsomes; type: ADME, Microsome
[13] = Fraction unbound in human; type: ADME, organism-based; settings: in vivo

Sequence of Cytochrome P450 2C9 (P11712 whole entry): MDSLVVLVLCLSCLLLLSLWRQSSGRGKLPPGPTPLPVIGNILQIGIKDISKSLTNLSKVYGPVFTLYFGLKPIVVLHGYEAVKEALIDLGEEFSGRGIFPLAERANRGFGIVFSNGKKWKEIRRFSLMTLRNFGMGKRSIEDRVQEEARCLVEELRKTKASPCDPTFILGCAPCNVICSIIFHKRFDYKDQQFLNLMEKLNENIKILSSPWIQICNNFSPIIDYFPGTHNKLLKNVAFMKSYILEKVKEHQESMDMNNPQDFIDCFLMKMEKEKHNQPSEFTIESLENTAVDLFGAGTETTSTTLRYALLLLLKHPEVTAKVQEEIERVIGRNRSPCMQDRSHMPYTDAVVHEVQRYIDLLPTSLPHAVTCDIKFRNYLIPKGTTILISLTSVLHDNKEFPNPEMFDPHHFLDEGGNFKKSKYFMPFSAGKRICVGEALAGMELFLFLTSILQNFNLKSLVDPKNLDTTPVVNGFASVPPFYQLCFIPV
Sequence of Cytochrome P450 2D6 (P10635 whole entry): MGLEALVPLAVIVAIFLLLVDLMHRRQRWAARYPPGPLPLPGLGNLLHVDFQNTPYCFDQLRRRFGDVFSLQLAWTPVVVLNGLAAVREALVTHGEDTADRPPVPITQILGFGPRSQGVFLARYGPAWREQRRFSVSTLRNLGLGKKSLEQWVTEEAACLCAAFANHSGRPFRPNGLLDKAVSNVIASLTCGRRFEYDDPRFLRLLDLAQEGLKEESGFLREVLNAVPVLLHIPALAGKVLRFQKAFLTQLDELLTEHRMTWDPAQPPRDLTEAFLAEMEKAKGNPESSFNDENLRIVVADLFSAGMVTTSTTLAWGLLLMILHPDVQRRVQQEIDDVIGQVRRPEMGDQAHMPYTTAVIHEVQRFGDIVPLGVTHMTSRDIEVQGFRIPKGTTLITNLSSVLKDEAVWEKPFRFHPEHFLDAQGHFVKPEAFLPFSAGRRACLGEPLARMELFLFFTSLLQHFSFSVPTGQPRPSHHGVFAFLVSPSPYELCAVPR
Sequence of Cytochrome P450 2C19 (P33261 whole entry): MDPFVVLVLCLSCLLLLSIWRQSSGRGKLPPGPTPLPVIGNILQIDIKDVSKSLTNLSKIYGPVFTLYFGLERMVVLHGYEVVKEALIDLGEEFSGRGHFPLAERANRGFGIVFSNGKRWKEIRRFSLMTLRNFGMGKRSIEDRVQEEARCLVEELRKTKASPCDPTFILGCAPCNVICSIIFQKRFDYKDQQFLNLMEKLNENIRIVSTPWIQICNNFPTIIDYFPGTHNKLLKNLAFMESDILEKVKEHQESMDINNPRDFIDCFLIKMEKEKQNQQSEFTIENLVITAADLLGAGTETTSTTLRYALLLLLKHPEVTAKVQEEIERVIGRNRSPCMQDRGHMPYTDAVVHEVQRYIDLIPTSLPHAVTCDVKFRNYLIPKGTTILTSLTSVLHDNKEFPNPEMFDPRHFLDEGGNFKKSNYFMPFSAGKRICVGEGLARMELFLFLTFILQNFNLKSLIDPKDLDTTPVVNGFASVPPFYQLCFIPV
Sequence of Cytochrome P450 3A4 (P08684 whole entry): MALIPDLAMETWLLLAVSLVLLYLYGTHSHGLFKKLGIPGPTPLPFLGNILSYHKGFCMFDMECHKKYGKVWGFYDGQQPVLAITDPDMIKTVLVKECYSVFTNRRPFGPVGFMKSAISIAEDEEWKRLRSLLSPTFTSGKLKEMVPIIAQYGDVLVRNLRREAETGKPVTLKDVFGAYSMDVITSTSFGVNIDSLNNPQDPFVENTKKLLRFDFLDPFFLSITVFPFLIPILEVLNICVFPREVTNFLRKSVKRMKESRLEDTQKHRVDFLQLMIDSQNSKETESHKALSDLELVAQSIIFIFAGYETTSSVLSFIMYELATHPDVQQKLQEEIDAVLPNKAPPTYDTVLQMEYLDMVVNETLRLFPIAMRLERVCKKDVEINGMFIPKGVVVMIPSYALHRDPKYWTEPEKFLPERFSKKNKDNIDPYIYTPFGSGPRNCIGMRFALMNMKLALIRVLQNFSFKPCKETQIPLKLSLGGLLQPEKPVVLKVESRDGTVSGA

SMILES: Cc1ccc(S(=O)(=O)Nc2c(C(=O)N[C@H](C)C(C)(C)C)c(C)nn2-c2ccccc2)cc1
- IC50 (fMet-Leu-Phe receptor [1]): 0.501 µM

SMILES: Cc1ccc(S(=O)(=O)Nc2c(C(=O)N(C)C3CCCCC3)c(C)nn2-c2ccccc2)cc1
- IC50 (fMet-Leu-Phe receptor [1]): 3.16 µM

SMILES: Cc1ccc(S(=O)(=O)Nc2c(C(=O)NC(C)C(C)(C)C)c(C)nn2-c2ccccc2)cc1 (configuration not stated)
- IC50 (fMet-Leu-Phe receptor [1]): 0.126 µM

SMILES: Cc1ccc(S(=O)(=O)Nc2c(C(=O)NC3CCCCC3)cnn2-c2ccccc2)cc1
- IC50 (fMet-Leu-Phe receptor [1]): 3.98 µM

SMILES: Cc1ccc(S(=O)(=O)Nc2c(C(=O)NC3CCN(C)CC3)cnn2-c2ccccc2)cc1
- inhibition [2]: < 25%

SMILES: Cc1ccc(S(=O)(=O)Nc2c(C(=O)N(C)C3CCCCC3)cnn2-c2ccccc2)cc1
- IC50 (fMet-Leu-Phe receptor [1]): 1.58 µM

SMILES: Cc1nn(-c2ccccc2)c(NS(=O)(=O)C2CCCCC2)c1C(=O)N[C@@H](C)C(C)(C)C
- IC50 (fMet-Leu-Phe receptor [1]): 1 µM

SMILES: Cc1nn(-c2ccc(F)cc2)c(NS(=O)(=O)c2ccc(C(F)(F)F)cc2)c1C(=O)N[C@@H](C)C(C)(C)C
- IC50 (fMet-Leu-Phe receptor [1]): 0.0126 µM

SMILES: CCC(CC)NC(=O)c1cnn(-c2ccccn2)c1NS(=O)(=O)c1ccc(C)cc1
- IC50 (fMet-Leu-Phe receptor [1]): 20 µM

SMILES: CCC(CC)NC(=O)c1c(C)nn(-c2ccccc2)c1NS(=O)(=O)c1ccc(C)cc1
- IC50 (fMet-Leu-Phe receptor [1]): 0.501 µM

SMILES: CCN(C(=O)c1cnn(-c2ccccc2)c1NS(=O)(=O)c1ccc(-c2cnco2)cc1)C1CCCCC1
- IC50 (fMet-Leu-Phe receptor [1]): 0.0794 µM

SMILES: CCC(CC)NC(=O)c1cnn(-c2ccccc2Cl)c1NS(=O)(=O)c1ccc(C)cc1
- IC50 (fMet-Leu-Phe receptor [1]): 10 µM

SMILES: CCC(C)NC(=O)c1c(C)nn(-c2ccccc2)c1NS(=O)(=O)c1ccc(C)cc1 (configuration not stated)
- IC50 (fMet-Leu-Phe receptor [1]): 0.158 µM

SMILES: CCC(CC)NC(=O)c1cnn(-c2ccc(C#N)cc2)c1NS(=O)(=O)c1ccc(C)cc1
- IC50 (fMet-Leu-Phe receptor [1]): 15.8 µM

SMILES: Cc1nn(-c2ccc(F)cc2)c(NS(=O)(=O)c2cccnc2)c1C(=O)N[C@@H](C)C(C)(C)C
- IC50 (fMet-Leu-Phe receptor [1]): 1 µM

SMILES: CCC(CC)NC(=O)c1cn(-c2ccccc2)nc1NS(=O)(=O)c1ccc(C)cc1
- IC50 (fMet-Leu-Phe receptor [1]): 10 µM

SMILES: Cc1ccc(S(=O)(=O)Nc2c(C(=O)NC3CCCCC3C)cnn2-c2ccccc2)cc1 (mixture of isomers)
- IC50 (fMet-Leu-Phe receptor [1]): 1 µM

SMILES: Cc1ccc(S(=O)(=O)Nc2c(C(=O)NCc3ccccc3)cnn2-c2ccccc2)cc1
- IC50 (fMet-Leu-Phe receptor [1]): 10 µM

SMILES: Cc1ccc(S(=O)(=O)Nc2c(C(=O)NC(C)C)c(C)nn2-c2ccccc2)cc1
- IC50 (fMet-Leu-Phe receptor [1]): 6.31 µM

SMILES: Cc1ccc(S(=O)(=O)Nc2c(C(=O)NC3CCCCC3)c(C)nn2-c2ccccc2)cc1
- IC50 (fMet-Leu-Phe receptor [1]): 0.794 µM

SMILES: Cc1nn(-c2ccccc2)c(NS(=O)(=O)c2cccc(CN3CCOCC3)c2)c1C(=O)N[C@@H](C)C(C)(C)C
- inhibition [2]: < 25%

SMILES: CCC(CC)NC(=O)c1cnn(-c2ccccc2)c1NS(=O)(=O)C1CCCC1
- IC50 (fMet-Leu-Phe receptor [1]): 5.01 µM

SMILES: Cc1ccc(S(=O)(=O)Nc2c(C(=O)NCc3ccc(C)cc3C)cnn2-c2ccccc2)cc1
- IC50 (fMet-Leu-Phe receptor [1]): 0.794 µM

SMILES: CCC(CC)NC(=O)c1cnn(C(C)C)c1NS(=O)(=O)c1ccc(C)cc1
- IC50 (fMet-Leu-Phe receptor [1]): 10 µM

SMILES: Cc1nn(-c2ccc(F)cc2)c(NS(=O)(=O)c2ccc(C#N)cc2)c1C(=O)N[C@@H](C)C(C)(C)C
- IC50 (Cytochrome P450 1A2): > 10 µM
- Kb (fMet-Leu-Phe receptor [3]): 0.126 µM
- inhibition (Cavia porcellus): inactive
- half-life [4]: > 41.7 days
- fraction unbound [5]: 0.1
- IC50 (Cytochrome P450 3A4): > 10 µM
- inhibition [6]: inactive
- hepatocyte CLint [7]: 4 µL/min/1e6 cells
- IC50 (fMet-Leu-Phe receptor [1]): 0.0251 µM
- hepatocyte CLint [8]: < 3 µL/min/1e6 cells
- logD [9]: 0.5
- IC50 (Cytochrome P450 2D6): > 10 µM
- IC50 (Cytochrome P450 2C19): > 10 µM
- solubility [10]: > 1000 µM
- inhibition (Rattus norvegicus): inactive
- IC50 (Cytochrome P450 2C9): > 10 µM
- microsomal CLint [11]: 13 µL/min/mg
- microsomal CLint [12]: 5 µL/min/mg
- fraction unbound [13]: 0.06

SMILES: Cc1ccc(S(=O)(=O)Nc2c(C(=O)NC3CCOCC3)cnn2-c2ccccc2)cc1
- IC50 (fMet-Leu-Phe receptor [1]): 10 µM

SMILES: Cc1ccc(S(=O)(=O)Nc2c(C(=O)N[C@@H](C)C(C)(C)C)c(C(F)(F)F)nn2-c2ccccc2)cc1
- IC50 (fMet-Leu-Phe receptor [1]): 0.0251 µM

SMILES: CCC(CC)NC(=O)c1cnn(-c2ccccc2)c1NS(=O)(=O)c1ccccc1
- IC50 (fMet-Leu-Phe receptor [1]): 5.01 µM

SMILES: CCC(CC)NC(=O)c1cnn(C)c1NS(=O)(=O)c1ccc(C)cc1
- inhibition [2]: < 25%

SMILES: Cc1ccc(S(=O)(=O)Nc2c(C(=O)NCC(C)(C)C)c(C)nn2-c2ccccc2)cc1
- IC50 (fMet-Leu-Phe receptor [1]): 2 µM

SMILES: CCC(CC)NC(=O)c1ncn(-c2ccccc2)c1NS(=O)(=O)c1ccc(C)cc1
- IC50 (fMet-Leu-Phe receptor [1]): 1.58 µM

SMILES: CNC(=O)c1cnn(-c2ccccc2)c1NS(=O)(=O)c1ccc(C)cc1
- inhibition [2]: < 25%

SMILES: CCC(CC)NC(=O)c1nnn(-c2ccccc2)c1NS(=O)(=O)c1ccc(C)cc1
- IC50 (fMet-Leu-Phe receptor [1]): 3.98 µM

SMILES: CCCC(CC)NC(=O)c1cnn(-c2ccccc2)c1NS(=O)(=O)c1ccc(C)cc1 (configuration not stated)
- IC50 (fMet-Leu-Phe receptor [1]): 0.316 µM

SMILES: CCC(CC)NC(=O)c1cnn(-c2ccccc2)c1NS(=O)(=O)c1ccc(-c2cnco2)cc1
- IC50 (fMet-Leu-Phe receptor [1]): 5.01 µM

SMILES: CCC(CC)NC(=O)c1cnn(-c2ccccc2)c1NS(=O)(=O)c1ccccc1C
- IC50 (fMet-Leu-Phe receptor [1]): 6.31 µM

SMILES: Cc1ccc(S(=O)(=O)Nc2c(C(=O)N[C@@H](C)C(C)(C)C)c(C)nn2-c2ccccc2)cc1
- IC50 (Cytochrome P450 1A2): > 10 µM
- Kb (fMet-Leu-Phe receptor [3]): 0.398 µM
- inhibition (Cavia porcellus): inactive
- half-life [4]: > 41.7 days
- fraction unbound [5]: 0.042
- IC50 (Cytochrome P450 3A4): > 10 µM
- inhibition [6]: inactive
- hepatocyte CLint [7]: 12 µL/min/1e6 cells
- IC50 (fMet-Leu-Phe receptor [1]): 0.0794 µM
- hepatocyte CLint [8]: 7 µL/min/1e6 cells
- logD [9]: 1.4
- IC50 (Cytochrome P450 2D6): > 10 µM
- IC50 (Cytochrome P450 2C19): > 10 µM
- solubility [10]: > 1000 µM
- inhibition (Rattus norvegicus): inactive
- IC50 (Cytochrome P450 2C9): > 10 µM
- microsomal CLint [11]: 53 µL/min/mg
- microsomal CLint [12]: 40 µL/min/mg
- fraction unbound [13]: 0.011

SMILES: CCC(CC)NC(=O)c1cnn(Cc2ccccc2)c1NS(=O)(=O)c1ccc(C)cc1
- IC50 (fMet-Leu-Phe receptor [1]): 5.01 µM

SMILES: Cc1ccc(S(=O)(=O)Nc2c(C(=O)NC3CCCCC3C)c(C)nn2-c2ccccc2)cc1 (mixture of isomers)
- IC50 (fMet-Leu-Phe receptor [1]): 0.158 µM

SMILES: Cc1ccc(S(=O)(=O)Nc2c(C(=O)NC3CCOCC3)c(C)nn2-c2ccccc2)cc1
- IC50 (fMet-Leu-Phe receptor [1]): 5.01 µM

SMILES: CCC(CC)NC(=O)c1cnn(-c2ccccc2)c1NS(=O)(=O)c1ccc(C)cc1
- IC50 (fMet-Leu-Phe receptor [1]): 2 µM

— ChEMBL document CHEMBL1914348, “Discovery of pyrazoles as novel FPR1 antagonists” (Bioorg Med Chem Lett, 2011)
